From patent US10005767B2, “Compositions and methods for inhibition of the JAK pathway” (Rigel Pharmaceuticals, Inc., priority 2009, dated 2018)
Read-outs that look alike come from different tables or passages of the source.

Tested on: human primary T-cells, IL-2 stimulated proliferation (JAK-1 and JAK-3 dependent; reported as JAK3 activity)
Assay: Human primary T-cell proliferation stimulated by IL-2 (Example 3)
Type: cell-based
Details: tested under conditions described in Example 3 (IL-2 stimulated human primary T-cell proliferation), read-out: ability to inhibit JAK3 activity, IC50 range (Table V)
Method in brief: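 Peripheral-blood human T-cells pre-activated via TCR/CD28, IL-2-starved overnight, then cultured 72 h at 37 °C with compound in Yssel's medium containing IL-2 (80 U/mL in cell suspension). Proliferation read as viable-cell ATP by CellTiter-Glo luminescence; reduction versus control taken as JAK pathway inhibition.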

**Q.** For Cc1cnc(Nc2ccc(N3CCN(C)CC3)nc2)nc1Nc1cc(F)c2oc(=O)[nH]c2c1 [II-75, 7-fluoro-5-(5-methyl-2-(6-(4-methylpiperazin-1-yl)pyridin-3-ylamino)pyrimidin-4-ylamino)benzo[d]oxazol-2(3H)-one], which IC50 (Homo sapiens, T-cell) is on record?
**A.** The IC50 was less than 500 nM.

**Q.** With Cc1cnc(Nc2cc(C)c(OC(F)F)c(C)c2)nc1Nc1ccc2oc(=O)[nH]c2c1 [Compound I-385, N2-(4-difluoromethoxy-3,5-dimethyl)phenyl-5-methyl-N4-(2-oxo-2,3-dihydro-1,3-benzoxazol-5-yl)-2,4-pyrimidinediamine] as the compound, how does the IC50 read?
**A.** The IC50 was less than 500 nM.

**Q.** Cc1cnc(Nc2cc(C(=O)NC3CCC3)cc(C(F)(F)F)c2)nc1Nc1ccc2oc(=O)[nH]c2c1 [Compound I-469, N-Cyclobutyl-3-[5-methyl-4-(2-oxo-2,3-dihydro-benzooxazol-5-ylamino)-pyrimidin-2-ylamino]-5-trifluoromethyl-benzamide] was tested. Which IC50 (Homo sapiens, T-cell) did it give?
**A.** Its IC50 is less than 500 nM.

**Q.** How did the IC50 turn out when Cc1cnc(Nc2ccc(N(C)S(C)(=O)=O)cc2)nc1Nc1ccc2oc(=O)[nH]c2c1 [Compound I-93, N2-((4-methylsulfonyl-N-methylamino)phenyl)-N4-(2-oxo-2,3-dihydrobenzo[d]oxazol-5-yl)-5-methylpyrimidine-2,4-diamine] was run?
**A.** Its IC50 is less than 500 nM.

**Q.** CCN1CCN(c2cc(Nc3ncc(C)c(Nc4ccc5oc(=O)[nH]c5c4)n3)ccc2Cl)CC1 [Compound I-283, N2-[4-chloro-3-(4-ethylpiperazino)]phenyl-5-methyl-N4-(2-oxo-2,3-dihydro-1,3-benzoxazol-5-yl)-2,4-pyrimidinediamine] was tested. Which IC50 did it give?
**A.** Its IC50 is less than 500 nM.

**Q.** Cc1cnc(Nc2cccc(S(C)(=O)=O)c2)nc1Nc1ccc2oc(=O)n(C)c2c1 [Compound I-69, N2-((3-methylsulfonyl)phenyl)-N4-(3-methyl-2-oxo-2,3-dihydrobenzo[d]oxazol-5-yl)-5-methylpyrimidine-2,4-diamine] was tested. Which IC50 did it give?
**A.** The IC50 was less than 500 nM.

**Q.** Which IC50 does the source give for CS(=O)(=O)c1cccc(Nc2ncc(F)c(Nc3ccc4oc(=O)[nH]c4c3)n2)c1 [Compound I-20] here?
**A.** The IC50 was less than 500 nM.

**Q.** How did the IC50 turn out when Cc1cnc(Nc2ccc(-c3cccnc3)cc2)nc1Nc1ccc2oc(=O)[nH]c2c1 [Compound I-291, 5-methyl-N4-(2-oxo-2,3-dihydro-1,3-benzoxazol-5-yl)-N2-[4-(pyridin-3-yl)]phenyl-2,4-pyrimidinediamine] was run?
**A.** Its IC50 is less than 500 nM.

**Q.** Cc1cnc(Nc2ccc3c(c2)NS(=O)(=O)CO3)nc1Nc1ccc2oc(=O)[nH]c2c1 [IV-16, 5-[2-(2,2-Dioxo-1H-benzo[e][1,3,4]oxathiazin-7-ylamino)-5-methyl-pyrimidin-4-ylamino]-3H-benzooxazol-2-one] was tested. Which IC50 (Homo sapiens, T-cell) did it give?
**A.** The IC50 was less than 500 nM.

**Q.** Cc1cnc(Nc2ccc3c(c2)C(=O)N(C)CCCC3)nc1Nc1ccc2oc(=O)[nH]c2c1 [IV-14, 2-Methyl-9-[5-methyl-4-(2-oxo-2,3-dihydro-benzooxazol-5-ylamino)-pyrimidin-2-ylamino]-3,4,5,6-tetrahydro-2H-benzo[c]azocin-1-one] was tested. Which IC50 (Homo sapiens, T-cell) did it give?
**A.** Its IC50 is less than 500 nM.

**Q.** COc1ccc(F)c(Nc2ncc(C)c(Nc3ccc4oc(=O)[nH]c4c3)n2)c1 [Compound I-533, 5-(2-(2-fluoro-5-methoxyphenylamino)-5-methylpyrimidin-4-ylamino)benzo[d]oxazol-2(3H)-one] was tested. Which IC50 (Homo sapiens, T-cell) did it give?
**A.** Its IC50 is less than 500 nM.

**Q.** For COc1ccnc(Nc2ncc(C)c(Nc3ccc4oc(=O)[nH]c4c3)n2)c1 [IV-58, N2-(4-methoxypyridin-2-yl)-5-methyl-N4-(2-oxo-2,3-dihydro-1,3-benzoxazol-5-yl)-2,4-pyrimidinediamine], which IC50 (Homo sapiens, T-cell) is on record?
**A.** The IC50 was greater than 10000 nM.

**Q.** COc1cc(Nc2ncc(C)c(Nc3ccc4oc(=O)[nH]c4c3)n2)cc(C(=O)N(C)C)c1 [Compound I-252, 3-methoxy-N,N-dimethyl-5-(5-methyl-4-(2-oxo-2,3-dihydrobenzo[d]oxazol-5-ylamino)pyrimidin-2-ylamino)benzamide] was tested. Which IC50 (Homo sapiens, T-cell) did it give?
**A.** Its IC50 is less than 500 nM.

**Q.** Which IC50 does the source give for Cc1cnc(Nc2cccc(S(N)(=O)=O)c2)nc1Nc1ccc2oc(=O)[nH]c2c1 [Compound I-14] here?
**A.** The IC50 was less than 500 nM.

**Q.** With Cc1cnc(Nc2cccc(C(C)N3CCCCC3)c2)nc1Nc1ccc2oc(=O)[nH]c2c1 (stereo not drawn) [Compound I-215, 5-(5-methyl-2-(3-(1-(piperidin-1-yl)ethyl)phenylamino)pyrimidin-4-ylamino)benzo[d]oxazol-2(3H)-one] as the compound, how does the IC50 (Homo sapiens, T-cell) read?
**A.** The IC50 was less than 500 nM.
